# Assay results: publication PMC11435065, “Inhibition of P-Glycoprotein Asymmetrically Alters the In Vivo Exposure Profile of SGC003F: A Novel Guanylate Cyclase Stimulator” (Pharmaceuticals, 2024)
# Where two headings read alike, the source gives them in different places.
# Test: Tissue distribution of SGC003F in rats with or without tariquidar
# Assay type: in vivo
# Details: rat; for Kp / AUC(0-t): male
# Experimental: A total of 45 male SD rats were randomly divided into 15 groups, with 3 rats in each group; each set of 5 groups constituted a larger group. The first large group served as the control group: SGC003F (p.o., 1 mg/kg) + blank solvent; the second large group was designated as experimental Group I: SGC003F (p.o., 1 mg/kg) + tariquidar (i.v., 7.5 mg/kg); the third group was labeled as Group II: SGC003F (p.o., 1 mg/kg) + tariquidar (p.o., 15 mg/kg). The rats in each group were euthanized at 0.5 h, 1 h, 2 h, 4 h, and 24 h after administration. Blood samples were collected by cardiac puncture and placed in heparin tubes. The plasma was harvested by centrifugation at 2500× g for 10 min at 4 °C. Major organs (brain, heart, liver, kidney, and small intestine) were collected and homogenized with saline at a ratio of 1:4 (w/v). All samples were stored at −40 °C for further analysis.
# The tissue plasma partition coefficient at individual time point (KP1) was calculated by the ratio of the tissue concentration to the plasma concentration at each time point, as described in Equation (3) KP1 = Ctissue/Cplasma(3)
# The overall tissue plasma partition coefficient (KP2) was calculated by the ratio of the area under the tissue drug-time curve to the area under the plasma drug–time curve, as described in Equation (4) KP2 = AUC(0-t, tissue)/AUC(0-t, plasma)(4)
# [1] = SGC003F p.o. 1 mg/kg, tariquidar i.v. 7.5 mg/kg
# [2] = SGC003F p.o. 1 mg/kg, tariquidar p.o. 15 mg/kg
smiles,measurement,setting,value
COC(=O)Nc1c(N)nc(-c2nn(Cc3sccc3F)c3ncc(F)cc23)nc1N [SGC003F],Kp,"SD, brain, oral, SGC003F p.o. 1 mg/kg, with tariquidar i.v. 7.5 mg/kg, read-out: KP2, Brain",0.004
same,Kp,"SD, brain, oral, SGC003F p.o. 1 mg/kg, with tariquidar p.o. 15 mg/kg, read-out: KP2, Brain",0.004
same,AUC(0-t),"SD, brain, po, 1 mg/kg, SGC003F p.o. 1 mg/kg, single, read-out: AUC(0–24h), Brain",13.1 ± 2.66 ng·h/mL
same,AUC(0-t),"SD, brain, po, 1 mg/kg, SGC003F p.o. 1 mg/kg, with tariquidar i.v. 7.5 mg/kg, read-out: AUC(0–24h), Brain",31.2 ± 10.9 ng·h/mL
same,AUC(0-t),"SD, brain, po, 1 mg/kg, SGC003F p.o. 1 mg/kg, with tariquidar p.o. 15 mg/kg, read-out: AUC(0–24h), Brain",41.5 ± 14.8 ng·h/mL
same,Kp,"SD, heart, oral, SGC003F p.o. 1 mg/kg, with tariquidar i.v. 7.5 mg/kg, read-out: KP2, Heart",0.4 ± 0.02
same,Kp,"SD, heart, oral, SGC003F p.o. 1 mg/kg, with tariquidar p.o. 15 mg/kg, read-out: KP2, Heart",0.45 ± 0.09
same,AUC(0-t),"SD, heart, po, 1 mg/kg, SGC003F p.o. 1 mg/kg, single, read-out: AUC(0–24h), Heart",2370 ± 346 ng·h/mL
same,Kp,"SD, heart, po, 1 mg/kg, SGC003F p.o. 1 mg/kg, single, read-out: KP2 (tissue/plasma AUC), Heart",0.45 ± 0.04
same,AUC(0-t),"SD, heart, po, 1 mg/kg, SGC003F p.o. 1 mg/kg, with tariquidar i.v. 7.5 mg/kg, read-out: AUC(0–24h), Heart",3060 ± 619 ng·h/mL
same,AUC(0-t),"SD, heart, po, 1 mg/kg, SGC003F p.o. 1 mg/kg, with tariquidar p.o. 15 mg/kg, read-out: AUC(0–24h), Heart",4750 ± 1820 ng·h/mL
same,AUC(0-t),"SD, kidney, po, 1 mg/kg, SGC003F p.o. 1 mg/kg, single, read-out: AUC(0–24h), Kidney",5990 ± 2170 ng·h/mL
same,AUC(0-t),"SD, kidney, po, 1 mg/kg, SGC003F p.o. 1 mg/kg, with tariquidar i.v. 7.5 mg/kg, read-out: AUC(0–24h), Kidney",7870 ± 1570 ng·h/mL
same,AUC(0-t),"SD, kidney, po, 1 mg/kg, SGC003F p.o. 1 mg/kg, with tariquidar p.o. 15 mg/kg, read-out: AUC(0–24h), Kidney",11900 ng·h/mL
same,AUC(0-t),"SD, liver, po, 1 mg/kg, SGC003F p.o. 1 mg/kg, single, read-out: AUC(0–24h), Liver",4870 ± 1050 ng·h/mL
same,AUC(0-t),"SD, liver, po, 1 mg/kg, SGC003F p.o. 1 mg/kg, with tariquidar i.v. 7.5 mg/kg, read-out: AUC(0–24h), Liver",6360 ± 283 ng·h/mL
same,AUC(0-t),"SD, liver, po, 1 mg/kg, SGC003F p.o. 1 mg/kg, with tariquidar p.o. 15 mg/kg, read-out: AUC(0–24h), Liver",9600 ± 1820 ng·h/mL
same,AUC(0-t),"SD, plasma, po, 1 mg/kg, SGC003F p.o. 1 mg/kg, single, read-out: AUC(0–24h), Plasma",5310 ± 798 ng·h/mL
same,AUC(0-t),"SD, plasma, po, 1 mg/kg, SGC003F p.o. 1 mg/kg, with tariquidar i.v. 7.5 mg/kg, read-out: AUC(0–24h), Plasma",7540 ± 1280 ng·h/mL
same,AUC(0-t),"SD, plasma, po, 1 mg/kg, SGC003F p.o. 1 mg/kg, with tariquidar p.o. 15 mg/kg, read-out: AUC(0–24h), Plasma",10200 ng·h/mL
same,AUC(0-t),"SD, small intestine, po, 1 mg/kg, SGC003F p.o. 1 mg/kg, single, read-out: AUC(0–24h), Intestine",2530 ± 988 ng·h/mL
same,AUC(0-t),"SD, small intestine, po, 1 mg/kg, SGC003F p.o. 1 mg/kg, with tariquidar i.v. 7.5 mg/kg, read-out: AUC(0–24h), Intestine",5630 ± 1360 ng·h/mL
same,AUC(0-t),"SD, small intestine, po, 1 mg/kg, SGC003F p.o. 1 mg/kg, with tariquidar p.o. 15 mg/kg, read-out: AUC(0–24h), Intestine",10400 ng·h/mL
same,Kp,"Sprague-Dawley, brain, po, 1 mg/kg, SGC003F p.o. 1 mg/kg, single, read-out: KP2 (tissue/plasma AUC), Brain",0.002
same,Kp,"Sprague-Dawley, kidney, oral, SGC003F p.o. 1 mg/kg, with tariquidar i.v. 7.5 mg/kg, read-out: KP2, Kidney",1.05 ± 0.14
same,Kp,"Sprague-Dawley, kidney, oral, SGC003F p.o. 1 mg/kg, with tariquidar p.o. 15 mg/kg, read-out: KP2, Kidney",1.16 ± 0.26
same,Kp,"Sprague-Dawley, kidney, po, 1 mg/kg, SGC003F p.o. 1 mg/kg, single, read-out: KP2 (tissue/plasma AUC), Kidney",1.11 ± 0.24
same,Kp,"Sprague-Dawley, liver, oral, SGC003F p.o. 1 mg/kg, with tariquidar i.v. 7.5 mg/kg, read-out: KP2, Liver",0.86 ± 0.11
same,Kp,"Sprague-Dawley, liver, oral, SGC003F p.o. 1 mg/kg, with tariquidar p.o. 15 mg/kg, read-out: KP2, Liver",0.95 ± 0.07
same,Kp,"Sprague-Dawley, liver, po, 1 mg/kg, SGC003F p.o. 1 mg/kg, single, read-out: KP2 (tissue/plasma AUC), Liver",0.91 ± 0.09
same,Kp,"Sprague-Dawley, small intestine, oral, SGC003F p.o. 1 mg/kg, with tariquidar i.v. 7.5 mg/kg, read-out: KP2, Intestine",0.74 ± 0.06
same,Kp,"Sprague-Dawley, small intestine, oral, SGC003F p.o. 1 mg/kg, with tariquidar p.o. 15 mg/kg, read-out: KP2, Intestine",1.01 ± 0.19
same,Kp,"Sprague-Dawley, small intestine, po, 1 mg/kg, SGC003F p.o. 1 mg/kg, single, read-out: KP2 (tissue/plasma AUC), Intestine",0.47 ± 0.11
same,Brain-to-plasma concentration ratio relative to control group,"4 h, SGC003F p.o. 1 mg/kg with tariquidar (oral or i.v.)",twice
same,Increase of SGC003F concentration in the brain versus SGC003F alone,"4 h, SGC003F p.o. 1 mg/kg, tariquidar intravenously 7.5 mg/kg",3.2 fold
same,Increase of SGC003F concentration in the brain versus SGC003F alone,"4 h, SGC003F p.o. 1 mg/kg, tariquidar orally 15 mg/kg",4.2 fold
same,Concentration of SGC003F in the brain,"24 h, all groups (alone or with tariquidar)",below the limit of quantification
same,"AUC(0–24h), Brain, Ratio 1 (with Tar (i.v.)/single)",[1],2.4
same,"AUC(0–24h), Heart, Ratio 1 (with Tar (i.v.)/single)",[1],~1.3
same,"AUC(0–24h), Intestine, Ratio 1 (with Tar (i.v.)/single)",[1],2.2
same,"AUC(0–24h), Kidney, Ratio 1 (with Tar (i.v.)/single)",[1],~1.3
same,"AUC(0–24h), Liver, Ratio 1 (with Tar (i.v.)/single)",[1],~1.3
same,"AUC(0–24h), Plasma, Ratio 1 (with Tar (i.v.)/single)",[1],1.4
same,"KP2, Brain, Ratio 1 (with Tar (i.v.)/single)",[1],2.0
same,"KP2, Intestine, Ratio 1 (with Tar (i.v.)/single)",[1],1.6
same,"AUC(0–24h), Heart, Ratio 2 (with Tar (p.o.)/single)",[2],2.0
same,"AUC(0–24h), Kidney, Ratio 2 (with Tar (p.o.)/single)",[2],2.0
same,"AUC(0–24h), Liver, Ratio 2 (with Tar (p.o.)/single)",[2],2.0
same,"AUC(0–24h), Plasma, Ratio 2 (with Tar (p.o.)/single)",[2],2.0
same,"KP2, Brain, Ratio 2 (with Tar (p.o.)/single)",[2],2.0
same,"KP2, Heart, Ratio 2 (with Tar (p.o.)/single)",[2],1.0
same,"KP2, Intestine, Ratio 2 (with Tar (p.o.)/single)",[2],2.1
same,"KP2, Kidney, Ratio 2 (with Tar (p.o.)/single)",[2],1.0
same,"KP2, Liver, Ratio 2 (with Tar (p.o.)/single)",[2],1.0
